# Data: PMC8513058, “Synthesis and Evaluation of Novel 1,2,6-Thiadiazinone Kinase Inhibitors as Potent Inhibitors of Solid Tumors” (Molecules, 2021)
# Key:
# MCF-7 cells = assay: Cancer cell line viability screen (alamarBlue), MCF7; conditions: Homo sapiens, MCF7, 72 h, read-out: IC50 MCF7
# Method: (§1) This included pancreatic, bladder, prostate, breast, chordoma, and lung cancer cell lines while a skin fibroblast cell line was used as a toxicity control [33, 34, 35, 36].
# (§2) DU145 and MCF-7 cells were cultured in MEM medium supplemented with 10% FBS and 1% penicillin/streptomycin. […] Cells were seeded in 384-well plates and were treated with test compound in quadruplicate 24 h after plating. Cell viability was assessed at 72 h using alamarBlue (ThermoFisher, Waltham, MA, USA). […] IC50 values were determined by nonlinear regression using GraphPad PrismTM software (GraphPad Software Inc., San Diego, CA, US).
# 5637 cells = assay: Cancer cell line viability screen (alamarBlue), 5637; conditions: 72 h, read-out: IC50 5637
# Method: as §1, §2
# PANC-1 cells = assay: Cancer cell line viability screen (alamarBlue), PANC1; conditions: Homo sapiens, PANC-1, 72 h, read-out: IC50 PANC1
# Method: as §1, §2
# U-CH2 cells = assay: Cancer cell line viability screen (alamarBlue), UCH2; conditions: UCH2, 72 h, read-out: IC50 UCH2
# Method: as §1
# (§3) Cells were seeded in 384-well plates and were treated with test compound in quadruplicate 24 h after plating. Cell viability was assessed at 72 h using alamarBlue (ThermoFisher, Waltham, MA, USA). […] IC50 values were determined by nonlinear regression using GraphPad PrismTM software (GraphPad Software Inc., San Diego, CA, US).
# A-431 cells = assay: Cancer cell line viability screen (alamarBlue), A431; conditions: Homo sapiens, A-431, 72 h, read-out: IC50 A431
# Method: as §1, §3
# DU145 cells = assay: Cancer cell line viability screen (alamarBlue), DU145; conditions: Homo sapiens, DU-145, 72 h, read-out: IC50 DU145
# Method: as §1, §2
# WS-1 cell line = assay: Toxicity control viability screen (alamarBlue), WS-1 skin fibroblasts; conditions: for IC50: WS1, 72 h, read-out: IC50 WS-1
# Method: as §1, §2
# U-CH1 cells = assay: Cancer cell line viability screen (alamarBlue), UCH1; conditions: UCH1, 72 h, read-out: IC50 UCH1
# Method: as §1, §3
# [1] = test system: kinases in SUM159 cell lysates; assay: MIBS kinome profiling (MIB-MS competitive displacement); format: binding; conditions: 1 μM compound vs DMSO, SUM159 lysate
# Method: We then assessed the kinome profile of thiadiazinones 16, 17, and 26 all at 1 μM using a multiplexed kinase inhibitor bead set and quantitative mass spectrometry for detection of kinase peptides (MIB-MS). The MIB-MS proteomics was able to detect between 350 and 400 kinases in the cell lysates and competitive displacement of specific kinases from the beads was used to determine the kinome profile of the thiadiazinone kinase inhibitors.
# Previously described. Briefly, multiplexed inhibitor beads (MIBS) affinity chromatography/MS analysis: SUM159 cells were cultured in a 50:50 mixture of DMEM and Nutrient Mixture F-12 medium (Gibco) supplemented with 5% fetal bovine serum, 1% anti/anti, […] insulin, and […] hydrocortisone. Cells were maintained at 37 °C in a humidified 5% CO2 atmosphere. SUM159 cells were grown to 80% confluency, washed twice with PBS, and harvested by scraping cells in lysis buffer [50 mM HEPES, pH 7.5, 150 mM NaCl, 0.5% Triton X-100, 1 mM EDTA, 1 mM EGTA, 10 mM NaF, 2.5 mM Na3VO4, complete protease inhibitor cocktail (Roche, Basel, Switzerland), phosphatase inhibitor cocktail 2, and 3 (Sigma, St. Louis, MO, USA)]. Lysates were sonicated then clarified by centrifugation at 14000 V g for 15 min at 4 °C. Lysate was then filtered through a […] syringe filter and frozen at −80 °C until use. Protein concentration was quantified using a Bradford assay the day of the experiment. DMSO or the indicated concentration of 16, 17, and 26 were added to lysate containing 4 mg of total protein. Lysates were vortexed briefly then incubated for 30 min on ice. Kinases were affinity purified as previously described. Briefly, lysates were diluted to 1.33 mg mL^−1 with lysis buffer then NaCl concentration brought to 1 M.
# Diluted lysates were passed over a mixture of […] of settled beads of each of the following inhibitors conjugated to ECH Sepharose beads: Purvalanol B, PP58, VI-16832, UNC21474A, UNC8088A, and […] of settled beads conjugated to CTx-0294885 and VI-16832 [69]. The kinase inhibitor–bead conjugates were previously equilibrated in high-salt buffer (50 mM HEPES pH 7.5, 1M NaCl, 0.5% Triton X-100, 1 mM EDTA, and 1 mM EGTA). MIBs columns were sequentially washed with high-salt buffer, low-salt buffer (50 mm HEPES pH 7.5, 150 mM NaCl, 0.5% Triton X-100, 1 mM EDTA, and 1 mM EGTA), and SDS buffer (50 mm HEPES pH 7.5, 150 mm NaCl, 0.5% Triton X-100, 1 mm EDTA, 1 mm EGTA, and 0.1% SDS). Proteins were eluted by boiling samples in elution buffer (100 mM Tris·HCl pH 6.8, 0.5% SDS, and 1% β-mercaptoethanol) for 15 min twice. Dithiothreitol (DTT) was added to a final concentration of 5 mm and samples were incubated at 60 °C for 25 min. Samples were then cooled to room temperature on ice and alkylated by adding iodoacetamide to a final concentration of 20 mm for 30 min in the dark at room temperature. Samples were then concentrated in 10K Amicon Ultra centrifugal concentrators (Millipore, Burlington, MA, USA) followed by methanol and chloroform precipitation of proteins. The final protein pellets were re-suspended in 50 mM HEPES pH 8.0 and incubated with trypsin at 37 °C overnight. Residual detergent was removed by three sequential ethyl acetate extractions then desalted using Pierce C18 spin columns (Thermo Scientific, Waltham, MA, USA) according to the manufacturer’s protocol.
Compound,melting point,IC50 (MCF-7 cells),IC50 (5637 cells),IC50 (PANC-1 cells),IC50 (U-CH2 cells),IC50 (A-431 cells),IC50 (DU145 cells),IC50 (WS-1 cell line),"IC50 WS-1 (WS-1 cell line; skin fibroblast cell line, toxicity control, viability at 72 h, alamarBlue, average of 4 independent experiments)",IC50 (U-CH1 cells),kinases competitively displaced from the beads (hits) [1],kinome profile ([1]; 350-400 kinases detected)
"Cc1ccc(O)cc1-c1nsnc(Nc2ccc3[nH]ncc3c2)c1=O [Compound 24, 5-(5-Hydroxy-2-methylphenyl)-3-[(1H-indazol-5-yl)amino]-4H-1,2,6-thiadiazin-4-one]",268 to 269 °C,13 µM,> 100 µM,26 µM,> 100 µM,> 100 µM,15 µM,> 100 µM,no toxicity,67 µM,,
"Cc1ccc(O)cc1Nc1nsnc(-c2ccnc3[nH]ccc23)c1=O [Compound 18, 3-[(5-Hydroxy-2-methylphenyl)amino]-5-(1H-pyrrolo[2,3-b]pyridin-4-yl)-4H-1,2,6-thiadiazin-4-one]",304 to 305 °C,> 100 µM,55 µM,> 100 µM,> 100 µM,> 100 µM,> 100 µM,> 100 µM,,> 100 µM,,
"O=c1c(Nc2ccc3[nH]ncc3c2)nsnc1-c1ccnc(F)c1 [Compound 26, 5-(2-Fluoropyridin-4-yl)-3-[(1H-indazol-5-yl)amino]-4H-1,2,6-thiadiazin-4-one]",280 °C (dec.),50 µM,8.4 µM,> 100 µM,> 100 µM,> 100 µM,5.7 µM,> 100 µM,,84 µM,"showing affinity for ACVR1B, ACVR2A, and STK35",narrow spectrum kinome profile but was a weak inhibitor
"O=c1c(-c2ccnc3[nH]ccc23)nsnc1N1CCOCC1 [Compound 19, 3-Morpholino-5-(1H-pyrrolo[2,3-b]pyridin-4-yl)-4H-1,2,6-thiadiazin-4-one]",256 to 257 °C,46 µM,> 100 µM,11 µM,> 100 µM,> 100 µM,14 µM,> 100 µM,,> 100 µM,,
"COc1cccc(-c2nsnc(Nc3ccc4[nH]ncc4c3)c2=O)c1 [Compound 25, 3-[(1H-Indazol-5-yl)amino]-5-(3-methoxyphenyl)-4H-1,2,6-thiadiazin-4-one]",220 to 221 °C,38 µM,13 µM,> 100 µM,99 µM,> 100 µM,> 100 µM,71 µM,,52 µM,,
"COc1cccc(Nc2nsnc(-c3ccnc4[nH]ccc34)c2=O)c1 [Compound 15, 3-[(3-Methoxyphenyl)amino]-5-(1H-pyrrolo[2,3-b]pyridin-4-yl)-4H-1,2,6-thiadiazin-4-one]",257 to 258 °C,> 100 µM,15 µM,> 100 µM,> 100 µM,> 100 µM,> 100 µM,> 100 µM,,67 µM,,
"CN1CCN(c2nsnc(-c3ccnc4[nH]ccc34)c2=O)CC1 [Compound 20, 3-(4-Methylpiperazin-1-yl)-5-(1H-pyrrolo[2,3-b]pyridin-4-yl)-4H-1,2,6-thiadiazin-4-one]",195 to 196 °C,> 100 µM,> 100 µM,> 100 µM,,,> 100 µM,,,,,
"O=c1c(Nc2ccc3[nH]ncc3c2)nsnc1-c1cccc(O)c1 [Compound 23, 5-(3-Hydroxyphenyl)-3-[(1H-indazol-5-yl)amino]-4H-1,2,6-thiadiazin-4-one]",282 to 283 °C,92 µM,> 100 µM,> 100 µM,> 100 µM,> 100 µM,84 µM,> 100 µM,,71 µM,,
"CN1CCN(c2nsnc(Nc3ccc4[nH]ncc4c3)c2=O)CC1 [Compound 22, 3-[(1H-Indazol-5-yl)amino]-5-(4-methylpiperazin-1-yl)-4H-1,2,6-thiadiazin-4-one]",262 to 263 °C,25 µM,> 100 µM,> 100 µM,> 100 µM,> 100 µM,50 µM,24 µM,,> 100 µM,,
"CC(=O)c1cccc(Nc2nsnc(-c3ccnc4[nH]ccc34)c2=O)c1 [Compound 14, 3-[(3-Acetylphenyl)amino]-5-(1H-pyrrolo[2,3-b]pyridin-4-yl)-4H-1,2,6-thiadiazin-4-one]",271 to 273 °C,> 100 µM,15 µM,> 100 µM,> 100 µM,> 100 µM,> 100 µM,92 µM,,58 µM,,
"CN1CCN(c2nsnc(Nc3ccnc4[nH]ccc34)c2=O)CC1 [Compound 21, 5-(4-Methylpiperazin-1-yl)-3-[(1H-pyrrolo[2,3-b]pyridin-4-yl)amino]-4H-1,2,6-thiadiazin-4-one]",286 to 287 °C,> 100 µM,> 100 µM,> 100 µM,> 100 µM,> 100 µM,51 µM,> 100 µM,,97 µM,,
